Measured values: ChEMBL document CHEMBL1149355, “Structure-activity relationships for the linker in a series of pyridinyl-alkynes that are antagonists of the metabotropic glutamate receptor 5 (mGluR5)” (Bioorg Med Chem Lett, 2006)
pIC50: −log10 of the molar value. Calls of active or inactive are those of the source. The calls are words filed in the database; no cut-off is given here.

Experiments:
[1] = molecular target: Metabotropic glutamate receptor 5 (Homo sapiens, UniProt P41594); assay: Activity at human mGluR5d assessed as inhibition of glutamate-induced calcium influx by FLIPR assay; type: functional
Metabotropic glutamate receptor 5, sequence (P41594 whole entry): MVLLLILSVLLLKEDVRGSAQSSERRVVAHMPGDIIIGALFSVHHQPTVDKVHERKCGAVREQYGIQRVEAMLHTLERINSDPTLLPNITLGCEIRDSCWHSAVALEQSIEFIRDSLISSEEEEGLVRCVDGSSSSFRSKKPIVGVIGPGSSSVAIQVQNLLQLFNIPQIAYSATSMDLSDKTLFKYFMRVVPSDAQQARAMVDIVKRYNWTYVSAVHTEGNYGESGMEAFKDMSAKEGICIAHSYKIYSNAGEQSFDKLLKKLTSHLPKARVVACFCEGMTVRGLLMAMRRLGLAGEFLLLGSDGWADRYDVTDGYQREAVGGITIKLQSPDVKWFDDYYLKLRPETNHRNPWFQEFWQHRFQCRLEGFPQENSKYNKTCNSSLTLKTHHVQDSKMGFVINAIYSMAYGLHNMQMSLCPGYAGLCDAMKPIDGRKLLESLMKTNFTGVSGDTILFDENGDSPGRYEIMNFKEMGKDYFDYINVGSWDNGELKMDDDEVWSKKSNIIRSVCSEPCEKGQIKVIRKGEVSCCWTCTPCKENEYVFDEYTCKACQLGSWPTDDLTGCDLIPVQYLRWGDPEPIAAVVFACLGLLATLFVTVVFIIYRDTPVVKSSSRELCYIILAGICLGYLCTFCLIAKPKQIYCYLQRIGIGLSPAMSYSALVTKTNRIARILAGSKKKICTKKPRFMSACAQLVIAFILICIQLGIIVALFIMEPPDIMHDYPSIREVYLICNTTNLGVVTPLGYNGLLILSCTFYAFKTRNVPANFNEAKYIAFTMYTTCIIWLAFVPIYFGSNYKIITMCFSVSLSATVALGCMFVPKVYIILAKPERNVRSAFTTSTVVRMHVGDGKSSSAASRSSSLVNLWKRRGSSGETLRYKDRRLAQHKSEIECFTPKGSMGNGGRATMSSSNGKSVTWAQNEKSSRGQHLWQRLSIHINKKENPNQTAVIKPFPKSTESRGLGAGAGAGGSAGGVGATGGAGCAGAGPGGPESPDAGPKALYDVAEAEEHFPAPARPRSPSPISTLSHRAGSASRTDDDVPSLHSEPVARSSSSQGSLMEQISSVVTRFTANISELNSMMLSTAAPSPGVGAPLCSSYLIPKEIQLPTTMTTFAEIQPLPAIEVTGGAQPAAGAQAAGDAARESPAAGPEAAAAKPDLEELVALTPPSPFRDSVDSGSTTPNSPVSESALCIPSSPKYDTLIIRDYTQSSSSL

[2] = molecular target: Metabotropic glutamate receptor 1 (Homo sapiens) (UniProt Q13255); assay: Activity at human mGluR1 assessed as inhibition of glutamate-induced calcium influx by FLIPR assay; type: functional
Metabotropic glutamate receptor 1 (Homo sapiens), sequence (Q13255 19-1194 limits assumed): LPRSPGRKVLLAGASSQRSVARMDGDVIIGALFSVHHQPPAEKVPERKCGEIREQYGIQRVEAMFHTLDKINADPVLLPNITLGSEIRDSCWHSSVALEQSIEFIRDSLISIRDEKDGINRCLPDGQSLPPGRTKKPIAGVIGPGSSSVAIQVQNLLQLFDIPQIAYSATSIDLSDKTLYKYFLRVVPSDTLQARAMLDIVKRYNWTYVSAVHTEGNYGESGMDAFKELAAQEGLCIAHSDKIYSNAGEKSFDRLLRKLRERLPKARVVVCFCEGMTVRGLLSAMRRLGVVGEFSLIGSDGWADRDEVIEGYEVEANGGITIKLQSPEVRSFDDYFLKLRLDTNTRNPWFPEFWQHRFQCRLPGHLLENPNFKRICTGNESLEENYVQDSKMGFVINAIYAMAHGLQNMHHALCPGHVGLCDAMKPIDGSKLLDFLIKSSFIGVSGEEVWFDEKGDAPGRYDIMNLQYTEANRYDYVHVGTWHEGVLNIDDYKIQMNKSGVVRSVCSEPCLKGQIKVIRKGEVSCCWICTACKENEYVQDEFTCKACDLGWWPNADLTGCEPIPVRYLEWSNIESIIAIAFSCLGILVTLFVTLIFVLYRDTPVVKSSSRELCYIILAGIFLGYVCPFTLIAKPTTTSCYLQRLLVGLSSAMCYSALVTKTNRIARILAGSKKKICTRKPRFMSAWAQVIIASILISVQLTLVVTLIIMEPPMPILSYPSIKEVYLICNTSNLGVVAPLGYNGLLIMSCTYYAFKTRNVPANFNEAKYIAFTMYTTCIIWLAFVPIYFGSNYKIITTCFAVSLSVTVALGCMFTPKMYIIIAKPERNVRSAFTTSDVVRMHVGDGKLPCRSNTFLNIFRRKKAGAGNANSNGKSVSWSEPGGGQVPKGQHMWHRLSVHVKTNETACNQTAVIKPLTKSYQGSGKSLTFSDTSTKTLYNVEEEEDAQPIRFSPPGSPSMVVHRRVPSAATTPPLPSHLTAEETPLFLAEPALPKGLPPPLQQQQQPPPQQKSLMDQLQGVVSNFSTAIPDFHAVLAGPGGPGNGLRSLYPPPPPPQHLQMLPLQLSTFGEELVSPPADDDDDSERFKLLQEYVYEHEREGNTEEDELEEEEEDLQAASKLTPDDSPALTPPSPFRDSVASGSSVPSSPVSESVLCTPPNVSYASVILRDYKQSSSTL

[3] = molecular target: Metabotropic glutamate receptor 3 (Homo sapiens) (UniProt Q14832); assay: Activity at human mGluR3 assessed as inhibition of glutamate-induced calcium influx by FLIPR assay; type: functional
Metabotropic glutamate receptor 3 (Homo sapiens), sequence (Q14832 23-879 limits assumed): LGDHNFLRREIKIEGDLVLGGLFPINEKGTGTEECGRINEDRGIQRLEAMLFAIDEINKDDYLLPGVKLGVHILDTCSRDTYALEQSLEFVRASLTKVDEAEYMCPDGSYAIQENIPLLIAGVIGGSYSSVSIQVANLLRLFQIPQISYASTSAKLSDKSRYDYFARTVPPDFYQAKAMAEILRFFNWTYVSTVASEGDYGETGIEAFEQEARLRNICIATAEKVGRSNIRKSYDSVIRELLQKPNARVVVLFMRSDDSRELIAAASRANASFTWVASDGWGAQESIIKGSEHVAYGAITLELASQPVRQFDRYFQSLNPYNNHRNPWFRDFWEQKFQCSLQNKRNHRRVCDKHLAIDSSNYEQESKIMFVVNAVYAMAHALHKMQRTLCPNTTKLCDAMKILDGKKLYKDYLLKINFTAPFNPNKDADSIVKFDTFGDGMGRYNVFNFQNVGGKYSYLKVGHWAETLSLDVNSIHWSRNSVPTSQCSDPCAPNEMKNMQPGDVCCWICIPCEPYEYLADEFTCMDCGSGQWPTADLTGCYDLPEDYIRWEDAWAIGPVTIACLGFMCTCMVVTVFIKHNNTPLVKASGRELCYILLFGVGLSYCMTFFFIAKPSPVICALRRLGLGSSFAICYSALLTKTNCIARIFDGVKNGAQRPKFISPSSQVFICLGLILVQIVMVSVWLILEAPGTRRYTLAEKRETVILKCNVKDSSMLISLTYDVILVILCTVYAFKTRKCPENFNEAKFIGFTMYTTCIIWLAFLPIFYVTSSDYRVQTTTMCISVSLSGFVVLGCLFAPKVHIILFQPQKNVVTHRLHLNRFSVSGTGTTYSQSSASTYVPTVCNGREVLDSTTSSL

[4] = molecular target: Metabotropic glutamate receptor 4 (Homo sapiens) (UniProt Q14833); assay: Activity at human mGluR4 assessed as inhibition of glutamate-induced calcium influx by FLIPR assay; type: functional
Metabotropic glutamate receptor 4 (Homo sapiens), sequence (Q14833 whole entry): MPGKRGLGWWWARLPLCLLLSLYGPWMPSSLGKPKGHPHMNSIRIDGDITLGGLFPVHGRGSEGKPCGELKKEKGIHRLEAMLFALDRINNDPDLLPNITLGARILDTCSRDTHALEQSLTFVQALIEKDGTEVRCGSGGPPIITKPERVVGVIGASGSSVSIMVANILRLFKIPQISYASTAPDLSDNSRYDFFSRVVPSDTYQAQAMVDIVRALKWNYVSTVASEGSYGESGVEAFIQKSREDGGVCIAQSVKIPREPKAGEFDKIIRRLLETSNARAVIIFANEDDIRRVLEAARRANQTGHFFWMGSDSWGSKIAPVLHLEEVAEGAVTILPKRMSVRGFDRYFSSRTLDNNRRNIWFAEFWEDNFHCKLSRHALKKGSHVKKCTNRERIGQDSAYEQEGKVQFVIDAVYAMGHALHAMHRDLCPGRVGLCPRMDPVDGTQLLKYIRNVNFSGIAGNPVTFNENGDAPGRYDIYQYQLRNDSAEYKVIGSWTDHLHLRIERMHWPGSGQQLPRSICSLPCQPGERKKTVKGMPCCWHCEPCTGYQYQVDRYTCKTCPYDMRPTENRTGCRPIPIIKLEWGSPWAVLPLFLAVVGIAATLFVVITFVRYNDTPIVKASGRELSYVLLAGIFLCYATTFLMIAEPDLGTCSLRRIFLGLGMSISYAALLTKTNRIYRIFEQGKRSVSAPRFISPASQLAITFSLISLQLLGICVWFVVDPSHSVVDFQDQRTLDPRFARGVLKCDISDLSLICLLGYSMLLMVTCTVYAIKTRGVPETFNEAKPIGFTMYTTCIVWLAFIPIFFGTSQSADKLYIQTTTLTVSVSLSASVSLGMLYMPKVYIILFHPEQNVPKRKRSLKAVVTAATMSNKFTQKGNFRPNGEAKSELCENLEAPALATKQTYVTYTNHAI

[5] = molecular target: Metabotropic glutamate receptor 8 (Homo sapiens) (UniProt O00222); assay: Activity at human mGluR8 assessed as inhibition of glutamate-induced calcium influx by FLIPR assay; type: functional
Metabotropic glutamate receptor 8 (Homo sapiens), sequence (O00222 whole entry): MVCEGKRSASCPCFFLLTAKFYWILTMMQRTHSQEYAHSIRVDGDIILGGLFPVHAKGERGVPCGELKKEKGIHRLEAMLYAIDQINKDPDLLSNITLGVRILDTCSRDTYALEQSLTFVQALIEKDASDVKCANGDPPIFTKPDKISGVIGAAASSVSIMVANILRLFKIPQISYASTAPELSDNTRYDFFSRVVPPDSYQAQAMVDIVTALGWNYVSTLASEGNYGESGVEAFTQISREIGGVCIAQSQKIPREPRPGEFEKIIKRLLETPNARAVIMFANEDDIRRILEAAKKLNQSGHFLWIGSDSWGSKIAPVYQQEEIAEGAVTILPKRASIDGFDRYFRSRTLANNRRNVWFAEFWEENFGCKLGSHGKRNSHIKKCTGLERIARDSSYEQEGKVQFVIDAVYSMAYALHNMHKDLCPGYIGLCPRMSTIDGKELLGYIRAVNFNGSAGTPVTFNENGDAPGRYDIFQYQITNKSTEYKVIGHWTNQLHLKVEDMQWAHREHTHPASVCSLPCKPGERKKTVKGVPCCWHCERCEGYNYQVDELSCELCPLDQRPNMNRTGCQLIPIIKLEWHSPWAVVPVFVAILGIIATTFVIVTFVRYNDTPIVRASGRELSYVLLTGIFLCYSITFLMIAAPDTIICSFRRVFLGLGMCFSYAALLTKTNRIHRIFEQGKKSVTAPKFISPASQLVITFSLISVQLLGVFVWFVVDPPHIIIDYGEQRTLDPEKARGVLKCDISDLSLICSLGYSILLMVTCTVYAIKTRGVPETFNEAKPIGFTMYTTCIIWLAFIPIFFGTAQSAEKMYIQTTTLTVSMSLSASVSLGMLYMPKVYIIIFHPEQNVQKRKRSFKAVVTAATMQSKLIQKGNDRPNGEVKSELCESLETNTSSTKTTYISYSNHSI

[6] = Intrinsic clearance in rat liver microsomes; type: ADME, Microsome
[7] = Clearance in dog; type: ADME, organism-based, Canis lupus familiaris; settings: in vivo
[8] = Volume of distribution in dog; type: ADME, organism-based, Canis lupus familiaris; settings: in vivo, read-out: Vss
[9] = Half life in dog; type: ADME, organism-based, Canis lupus familiaris; settings: in vivo
Canis familiaris = assay: Inhibition of transient lower esophageal sphincter relaxation in dog at 3.9 umol/kg, iv; type: functional, Canis lupus familiaris; set-up: scale not given: the % may be the effect or the level left

Row | pIC50 [1] | Activity [2] | Compound | other results
1 | < 5.00 | – | Cc1cccc(C#CCNC(=O)Nc2cccc(Cl)c2)n1 | –
2 | – | inactive | Cc1cccc(C#CCOc2cccc(Cl)c2)n1 | –
3 | 6.15 | inactive | Cc1cccc(C#CC(C)Nc2cccc(Cl)c2)n1 (configuration not stated) | –
4 | 6.76 | inactive | Cc1cccc(C#CCNc2cccc(Cl)c2)n1 | –
5 | 6.59 | – | Cc1cccc(C#CCCCc2ccccc2)n1 | –
6 | 6.93 | inactive | Cc1cccc(C#CC(C)Sc2cccc(Cl)c2)n1 (configuration not stated) | –
7 | < 5.00 | – | Cc1cccc(C#CC(=O)Nc2ccccc2)n1 | –
8 | 6.51 | – | Cc1cccc(C#Cc2cc3ccccc3s2)n1 | –
9 | < 5.00 | – | Cc1cccc(C#CC[S+]([O-])c2ccccc2)n1 (configuration not stated) | –
10 | 7.11 | – | Cc1cccc(C#CCCc2ccccc2)n1 | Activity [3]: inactive; Activity [4]: inactive; Activity [5]: inactive
11 | 6.65 | – | Cc1cccc(C#CCNc2ccccc2)n1 | –
12 | 6.34 | – | Cc1cccc(C#CC(Sc2cccc(Cl)c2)C(C)C)n1 (configuration not stated) | –
13 | 7.37 | inactive | Cc1cccc(C#CCSc2cccc(Cl)c2)n1 | –
14 | 6.06 | – | CCC(C#Cc1cccc(C)n1)Sc1cccc(Cl)c1 (configuration not stated) | –
15 | 8.30 | inactive | Cc1cccc(C#CCCc2cccc(Cl)c2)n1 | Activity [3]: inactive; Activity [4]: inactive; Activity [5]: inactive; microsomal CLint [6]: 197 µL/min/mg; clearance [7]: 66 mL/min/kg; Vd [8]: 3.2 L/kg; half-life [9]: 2 h; Activity (Canis familiaris): 31%
16 | 5.17 | – | Cc1cccc(C#CCN(C)c2ccccc2)n1 | –
17 | 6.23 | – | Cc1cccc(C#CCSc2ccccc2)n1 | –
18 | 5.58 | – | Cc1cccc(C#CCNC(=O)c2cccc(Cl)c2)n1 | –
19 | 7.23 | – | Cc1cccc(C#CCC(C)c2ccccc2)n1 (configuration not stated) | –
20 | 6.55 | inactive | Cc1cccc(C#CC(C)Oc2cccc(Cl)c2)n1 (configuration not stated) | –
